In US8957184B2, “Pro-apoptotic peptides” (priority 2009, dated 2015):
Where two headings read alike, the source gives them in different places. Ends that are not written are not given here.

Assays:
[1] = test system: Exponentially proliferating cells; assay: Intracellular detection of biotinylated peptides (cell penetration); type: cell-based
Procedure: Exponentially proliferating cells were rinsed twice in PBS. A total of 6×10^4 cells per well were seeded in 24 well plates and incubated in RPMI-1640 at 37° C. After 24 h, biotinylated peptides were added and incubated with cells (4 h) for intracellular analysis. Cells were rinsed in PBS and fixed with 0.1% paraformaldehyde (PFA) for 10 min before adding […] of streptavidin-peroxidase. Then, cells were rinsed with PBS, incubated with di-amino-benzidyne (DAB) for 5 min, washed in PBS and analyzed by microscopy.

[2] = test system: primary B cells from CLL patients; assay: Effect of DPT-C9h on PBMC: B cells from CLL patients (annexin staining); type: cell-based, human
Procedure: PBMC (Peripheral Blood Mononuclear Cell) were isolated by Ficoll gradient centrifugation from healthy donors and CLL patients, cultured in complete RPMI medium and treated with 150 μM of DPT-C9h peptide. Upon 3 h of treatment, cells were washed and resuspended in complete RPMI medium. Apoptosis was estimated 6 h after washing using Annexin staining and specific markers for B cells (FIG. 4A), and for T, NK and monocytes (FIG. 4B). Apoptosis is represented as the percentage compared to cells treated with […].
PBMC were isolated by Ficoll gradient centrifugation from healthy donors and three different types of CLL patients: treated, non-treated and resistant. Cells were maintained in complete RPMI medium, treated with 150 μM of DPT-C9h peptide for 3 h and then washed and transferred to complete medium. Samples were analyzed at different times after washing. Apoptosis was estimated by annexin staining. The different populations were selected using specific markers. Apoptosis is represented as percentage compared to control non treated cells.
Mononuclear cells isolated from peripheral blood (PBMC) were prepared by Ficoll gradient centrifugation.
A total of 2.5×10^5 cells were washed with ice-cold PBS, diluted in ice-cold binding buffer and stained with annexin and propidium iodide (PI). Samples were maintained on ice for 10 min in the dark and then analyzed by flow cytometry.

[3] = test system: bone marrow B cells from CLL patients; assay: Effect of DPT-C9h on bone marrow cells, CLL patients; type: cell-based, human

N=C(N)NCCC[C@H](NC(=O)[C@H](CCCNC(=N)N)NC(=O)[C@H](CCCNC(=N)N)NC(=O)[C@H](CCC(N)=O)NC(=O)[C@H](CCCNC(=N)N)NC(=O)[C@H](CCCNC(=N)N)NC(=O)[C@H](CCCCN)NC(=O)[C@H](CCCCN)NC(=O)[C@H](CCCNC(=N)N)NC(=O)CNC(=O)[C@@H](N)Cc1ccc(O)cc1)C(=O)O [Tat, YGRKKRRQRRR]
internalization of peptide ([1]; data not shown): internalized

VKKKKIKREIKI [DPT-sh1, VKKKKIKREIKI]
internalization of peptide ([1]; data not shown): internalized

VKKKKIKREIKILDESRAWQELIGDLTEIY [DPT-C9r, VKKKKIKREIKI-LDESRAWQELIGDLTEIY]
internalization of peptide ([1]; data not shown): internalized

VKKKKIKREIKIYIETLDGILEQWARSEDL [DPT-C9, VKKKKIKREIKI-YIETLDGILEQWARSEDL]
internalization of peptide [1]: internalized

VKKKKIKREIKIYVETLDGIFEQWAHSEDL [DPT-C9h, VKKKKIKREIKI-YVETLDGIFEQWAHSEDL]
penetrating properties [2]: penetrating | cell penetrating activity [3]: cell penetrating

YIETLDGILEQWARSEDL [C9, YIETLDGILEQWARSEDL]
internalization of peptide ([1]; data not shown): not internalized
